Assay results reported in US4575498A, “Method for restoring depleted purine nucleotide pools” (priority 1983, dated 1986).

What was measured:
skeletal muscle = test: AICAriboside infusion: nucleotide, nucleoside and base content of skeletal (gastrocnemius) muscle biopsies; format: in vivo, mongrel dogs; design: AMP / ADP / ATP / TAN / IMP / Hyp (hypoxanthine): unit not given beside the values; details: for TAN: total adenine nucleotide
postischemic myocardium = test: Myocardial nucleotide and creatine phosphate content, coronary occlusion and reperfusion; format: in vivo, dogs
Procedure: (§1) Catheters were placed in the left atrium and aorta, and a snare positioned around the left anterior descending coronary artery in 15 open-chest dogs. Regional myocardial blood flow was measured and transmural tissue samples were obtained using known techniques. Blood flow measurements and tissue samples were obtained prior to and just before release of a 12-minute coronary occlusion. The chest was closed and the animals allowed to awaken. Twenty-four hours later, the animals were anesthetized, the chest opened, blood flow measured, and tissue samples obtained. No hemodynamic measurements were made on the animals.
(§2) In seven animals, 200 mM AICAriboside (Sigma Chemical Co.) was infused into the left atrial catether at either 14 μmol/min (n=2) or 37 μmol/min (n=5) beginning with coronary occlusion and continuing for 24 hours. Eight control animals were infused with an equal volume of saline over 24 hours.
Nucleotide and creatine phosphate analyses were performed by high performance liquid chromatography on acid extracts of the tissue as previously described. Nucleotide analysis is described in Example 1, and creatine phosphate analysis is described in Juengling and Kammermeier, Anal. Biochem., 102, 358-361 (1980).
(§3) All comparisons between AICAriboside and saline treated animals were done by unpaired analyses.

myocardium = test: Regional myocardial blood flow, coronary occlusion and reperfusion; format: in vivo, dogs; details: any time point
Procedure: as §1, §2, §3

[1] = AICAriboside plasma concentration during infusion; format: in vivo, mongrel dogs; details: dog, after 42 min of infusion, 100 mM at 1.9 ml/min into left atrium
Procedure: Animal Preparation--Seven adult mongrel dogs were anesthetized intramuscularly with 40 mg of morphine sulfate and intravenously with 80 mg/kg of chloralose, an endotraceal tube was inserted, and ventilation was maintained with an Emerson volume-cycled respirator and 100% oxygen. The heart was exposed through a left lateral thoracotomy, polyvinyl chloride catheters (3-mm outer diameter) were inserted into the left atrium and into the aorta through the right femoral artery, and a Statham TTQ electromagnetic flow meter probe was positioned around the ascending aorta. The aortic pressure catheter was connected to a Statham P23Db transducer (Statham Instruments, Inc., Oxnard, CA) with the zero reference at the midchest level. Aortic flow was measured with a Howell Instruments Series 1000 Flowmeter, and stroke volume and cardiac output were calculated from the aortic flow measurement. All hemodynamic data were monitored continuously throughout the course of the study. […]
After hemodynamic parameters had stabilized, regional myocardial blood flow was measured by injecting radioactively labled microspheres. […] Venous and arterial blood samples were also obtained at 42 min. of infusion, and regional myocardial blood flow was measured at 10 and 39 min. of AICAriboside infusion. […]

[2] = 2 min postinfusion, P < 0.05 vs control
[3] = 30 min of AICAriboside infusion
[4] = 30 min of AICAriboside infusion, P < 0.05 vs control
[5] = endo, 24 Hr postischemic (first column)
[6] = endo, 24 Hr postischemic (second column so headed)
[7] = epi, 24 Hr postischemic (first column)
[8] = epi, 24 Hr postischemic (second column so headed)
[9] = epi, 24 Hr postischemic (second column so headed), P < 0.05 vs saline

NC(=O)c1ncn([C@@H]2O[C@H](CO)[C@@H](O)[C@H]2O)c1N [AICAriboside, 5-amino-4-imidazolecarboxamide riboside]
AMP (skeletal muscle; 2 min postinfusion): 0.016 ± 0.002
Hyp (hypoxanthine) (skeletal muscle; 2 min postinfusion): 0.022 ± 0.009
Ino (inosine) (skeletal muscle; 2 min postinfusion): 0.024 ± 0.008
ADP (skeletal muscle; [2]): 0.65 ± 0.06
ATP (skeletal muscle; [2]): 4.68 ± 0.45
IMP (skeletal muscle; [2]): 0.046 ± 0.012
ADP (skeletal muscle; 22 min postinfusion): 0.59 ± 0.03
AMP (skeletal muscle; 22 min postinfusion): 0.014 ± 0.003
ATP (skeletal muscle; 22 min postinfusion): 4.34 ± 0.21
Hyp (hypoxanthine) (skeletal muscle; 22 min postinfusion): 0.021 ± 0.008
Ino (inosine) (skeletal muscle; 22 min postinfusion): 0.024 ± 0.011
IMP (skeletal muscle; 22 min postinfusion, P < 0.05 vs control): 0.045 ± 0.016
ADP (skeletal muscle; [3]): 0.53 ± 0.04
AMP (skeletal muscle; [3]): 0.016 ± 0.009
ATP (skeletal muscle; [3]): 3.92 ± 0.23
Hyp (hypoxanthine) (skeletal muscle; [4]): 0.024 ± 0.007
IMP (skeletal muscle; [4]): 0.050 ± 0.012
Ino (inosine) (skeletal muscle; [4]): 0.035 ± 0.009
ADP (skeletal muscle; 60 min postinfusion): 0.56 ± 0.05
AMP (skeletal muscle; 60 min postinfusion): 0.018 ± 0.007
ATP (skeletal muscle; 60 min postinfusion): 3.60 ± 0.41
Hyp (hypoxanthine) (skeletal muscle; 60 min postinfusion): 0.041 ± 0.017
Ino (inosine) (skeletal muscle; 60 min postinfusion): 0.055 ± 0.031
IMP (skeletal muscle; 60 min postinfusion, P < 0.05 vs control): 0.043 ± 0.015
increase in IMP content (skeletal muscle; AICAriboside infusion): 6-7 fold
guanine nucleotide content (skeletal muscle; not statistically significant): tended to increase
content of inosine and hypoxanthine (skeletal muscle; throughout infusion and up to 60 min thereafter): consistently elevated
content of NAD^+ (skeletal muscle; throughout infusion, did not vary): 0.32 ± 0.04 µmol/g
TAN (skeletal muscle; [2]): 5.34 ± 0.51
TAN (skeletal muscle; 22 min postinfusion): 4.94 ± 0.23
TAN (skeletal muscle; [3]): 4.47 ± 0.27
TAN (skeletal muscle; 60 min postinfusion): 4.18 ± 0.44
GTP content restoration (postischemic myocardium; 24 hours of reperfusion, saline 82% (epi), 78% (endo) of nonischemic levels): restored to nonischemic levels
ADP (postischemic myocardium; [5]): 0.78 ± 0.09 μmol/g wet wt
AMP (postischemic myocardium; [5]): 0.056 ± 0.019 μmol/g wet wt
CP (creatine phosphate) (postischemic myocardium; [5]): 7.8 ± 1.1 μmol/g wet wt
CTP (postischemic myocardium; [5]): 0.052 ± 0.005 μmol/g wet wt
NAD (postischemic myocardium; [5]): 0.57 ± 0.02 μmol/g wet wt
UTP (postischemic myocardium; [5]): 0.121 ± 0.013 μmol/g wet wt
IMP (postischemic myocardium; endo, 24 Hr postischemic (first column), P < 0.05 vs saline): 0.027 ± 0.007 μmol/g wet wt
ADP (postischemic myocardium; [6]): 0.75 ± 0.07 μmol/g wet wt
AMP (postischemic myocardium; [6]): 0.041 ± 0.005 μmol/g wet wt
CP (creatine phosphate) (postischemic myocardium; [6]): 6.9 ± 0.5 μmol/g wet wt
CTP (postischemic myocardium; [6]): 0.056 ± 0.004 μmol/g wet wt
NAD (postischemic myocardium; [6]): 0.60 ± 0.05 μmol/g wet wt
UTP (postischemic myocardium; [6]): 0.106 ± 0.011 μmol/g wet wt
IMP (postischemic myocardium; endo, 24 Hr postischemic (second column so headed), P < 0.05 vs saline): 0.017 ± 0.004 μmol/g wet wt
ADP (postischemic myocardium; endo, occlusion): 0.86 ± 0.06 μmol/g wet wt
AMP (postischemic myocardium; endo, occlusion): 0.089 ± 0.012 μmol/g wet wt
CP (creatine phosphate) (postischemic myocardium; endo, occlusion): 2.0 ± 0.3 μmol/g wet wt
CTP (postischemic myocardium; endo, occlusion): 0.016 ± 0.003 μmol/g wet wt
IMP (postischemic myocardium; endo, occlusion): 0.008 ± 0.002 μmol/g wet wt
NAD (postischemic myocardium; endo, occlusion): 0.45 ± 0.02 μmol/g wet wt
UTP (postischemic myocardium; endo, occlusion): 0.055 ± 0.007 μmol/g wet wt
increase in ATP content (postischemic myocardium; endo, previously ischemic region, 24 hours of reperfusion, saline 21%): 63%
ATP content vs saline-treated (postischemic myocardium; epi and endo, previously ischemic region, 24 hours of reperfusion, P<0.001): greater in the AICAriboside group
ADP (postischemic myocardium; [7]): 0.73 ± 0.05 μmol/g wet wt
AMP (postischemic myocardium; [7]): 0.048 ± 0.009 μmol/g wet wt
CP (creatine phosphate) (postischemic myocardium; [7]): 7.1 ± 0.5 μmol/g wet wt
CTP (postischemic myocardium; [7]): 0.051 ± 0.004 μmol/g wet wt
NAD (postischemic myocardium; [7]): 0.56 ± 0.03 μmol/g wet wt
UTP (postischemic myocardium; [7]): 0.104 ± 0.121 μmol/g wet wt
IMP (postischemic myocardium; epi, 24 Hr postischemic (first column), P < 0.05 vs saline): 0.025 ± 0.007 μmol/g wet wt
ADP (postischemic myocardium; [8]): 0.70 ± 0.05 μmol/g wet wt
AMP (postischemic myocardium; [8]): 0.036 ± 0.005 μmol/g wet wt
CP (creatine phosphate) (postischemic myocardium; [8]): 7.8 ± 0.5 μmol/g wet wt
CTP (postischemic myocardium; [8]): 0.051 ± 0.005 μmol/g wet wt
UTP (postischemic myocardium; [8]): 0.096 ± 0.008 μmol/g wet wt
IMP (postischemic myocardium; [9]): 0.015 ± 0.004 μmol/g wet wt
NAD (postischemic myocardium; [9]): 0.55 ± 0.02 μmol/g wet wt
ADP (postischemic myocardium; epi, occlusion): 0.99 ± 0.11 μmol/g wet wt
AMP (postischemic myocardium; epi, occlusion): 0.135 ± 0.045 μmol/g wet wt
CP (creatine phosphate) (postischemic myocardium; epi, occlusion): 2.9 ± 0.7 μmol/g wet wt
CTP (postischemic myocardium; epi, occlusion): 0.023 ± 0.003 μmol/g wet wt
IMP (postischemic myocardium; epi, occlusion): 0.007 ± 0.001 μmol/g wet wt
NAD (postischemic myocardium; epi, occlusion): 0.47 ± 0.03 μmol/g wet wt
UTP (postischemic myocardium; epi, occlusion): 0.061 ± 0.007 μmol/g wet wt
increase in ATP content (postischemic myocardium; epi, previously ischemic region, 24 hours of reperfusion, saline 2%): 41%
GTP content vs saline (postischemic myocardium; epicardium and endocardium of previously ischemic region, 24 hours of reperfusion, P<0.003): greater in the AICAriboside group
AMP or ADP content vs saline (postischemic myocardium; postischemic region): no detectable differences
UTP, CTP, or NAD^+ content vs saline (postischemic myocardium; postischemic region): no statistically significant differences
total adenine nucleotide content (ATP+ADP+AMP) vs saline (postischemic myocardium; postischemic region): greater in the AICAriboside group
creatine phosphate content restoration (postischemic myocardium; postischemic regions, both groups): restored to preocclusion levels
creatine phosphate fall at end of occlusion (postischemic myocardium; vs saline): fell to a comparable extent
percentage drop in ATP during ischemia (postischemic myocardium; vs saline): comparable in both groups
regional flow vs saline group (myocardium): no differences
concentration at 0.7 h [1]: 336 ± 26 µM
